6 molecules from patent US20020132792A1, “Aryl-substituted indirubin derivatives, their production and use” (Schering AG, priority 2000, published 2002) can be followed below.

One data set deals with T1, CDK2/CycE (Homo sapiens, UniProt P24941).
T1 construct: GST; purchased Dr. Dieter Marmé, Klinik für Tumorbiologie, Freiburg (obtained from an outside laboratory); host or cells: baculovirus-infected Sf9 insect cells
Briefly: CDK2/CycE kinase assay. The data set is classed as biochemical. The settings on record: recombinant CDK2/CycE-GST, histone IIIS substrate, 0.5 μm ATP, 15 minutes at 22° C. As for the experimental part: Recombinant CDK2- and CycE-GST-fusion proteins, purified from baculovirus-infected insect cells (Sf9), were obtained by Dr. Dieter Marmé, Klinik für Tumorbiologie [Clinic for Tumor Biology], Freiburg. Histone IIIS, which was used as a kinase substrate, was purchased by the Sigma Company.
CDK2/CycE (50 ng/measuring point) was incubated for 15 minutes at 22° C. in the presence of various concentrations of test substances (0 μm, as well as within the range of 0.01-100 μm) in assay buffer [50 mmol of tris/HCl pH 8.0, 10 mmol of MgCl2, 0.1 mmol of Na ortho-vanadate, 1.0 mmol of dithiothreitol, 0.5 μm of adenosine triphosphate (ATP), 10 μg/measuring point of histone IIIS, 0.2 μCi/measuring point of ^33P-gamma ATP, 0.05% NP40, 12.5% dimethyl sulfoxide]. The reaction was stopped by adding EDTA solution (250 mmol, pH 8.0, 14 μl/measuring point).
From each reaction batch, 10 μl was applied to P30 filter strips (Wallac Company), and non-incorporated ^33P-ATP was removed by subjecting the filter strips to three washing cycles for 10 minutes each in 0.5% phosphoric acid. After the filter strips were dried for one hour at 70° C., the filter strips were covered with scintillator strips (MeltiLex™ A, Wallac Company) and baked for one hour at 90° C. The amount of incorporated ^33P (substrate phosphorylation) was determined by scintillation measurement in a gamma-radiation measuring device (Wallac).

The test system of another data set is MCF-7 cells. The experiment in a line: Proliferation assay (crystal violet). Type of data set: cell-based. The settings on record: MCF7, 96 h, MCF-7 human tumor cells, 4 days incubation. Here is the method: Cultivated human tumor cells (as indicated) were flattened out at a density of 5000 cells/measuring point in a 96-well multititer plate in 200 μl of the corresponding growth medium. After 24 hours, the cells of one plate (zero-point plate) were colored with crystal violet (see below), while the medium of the other plates was replaced by fresh culture medium (200 μl), to which the test substances were added in various concentrations (0 μm, as well as in the range of 0.01-30 μm; the final concentration of the solvent dimethyl sulfoxide was 0.5%). The cells were incubated for 4 days-in the presence of test substances. The cell proliferation was determined by coloring the cells with crystal violet: the cells were fixed by adding 20 μl/measuring point of a 11% glutaric aldehyde solution for 15 minutes at room temperature. After subjecting the fixed cells to three washing cycles with water, the plates were dried at room temperature. The cells were colored by adding 100 μL/measuring point of a 0.1% crystal violet solution (pH was set at 3 by adding acetic acid). […] The extinction was determined by photometry at a wavelength of 595 nm. The change of cell growth, in percent, was calculated by standardization of the measured values to the extinction values of the zero-point plate (=0%) and the extinction of the untreated (0 μm) cells (=100%).

What is called IC50 is the concentration that inhibits the measured activity by half. Consider `O=C1Nc2ccc(-c3cc(C(F)(F)F)cc(C(F)(F)F)c3)cc2C1=C1Nc2ccccc2C1=O` [Example 1.3], for which the half-inhibitory concentration (IC50) at CDK2/CycE was 600 nM.

By melting point is commonly meant the temperature, or range, at which the solid turns liquid. Molecule `COc1ccc(-c2ccc3c(c2)/C(=C2/Nc4ccccc4C2=O)C(=O)N3)cc1` [Example 1.0, 5-(4-Methoxyphenyl)-indirubin] returned a melting point greater than 300 °C. The half-inhibitory concentration (IC50) on CDK2/CycE is greater than 5000 nM.

Regarding `CC(C)(C)c1ccc(-c2ccc3c(c2)C(=C2Nc4ccccc4C2=O)C(=O)N3)cc1` [Example 1.5], the IC50 at CDK2/CycE was 300 nM.

Take `CC(C)(C)[Si](C)(C)Oc1cccc(-c2ccc3c(c2)C(=C2Nc4ccccc4C2=O)C(=O)N3)c1` [Example 1.2]: the IC50 was found to be 4000 nM with MCF-7 cells and 150 nM at CDK2/CycE.

With `O=C1Nc2ccc(-c3ccccc3)cc2C1=C1Nc2ccccc2C1=O` [Example 1.1], the IC50 at CDK2/CycE was 1000 nM.

Consider `O=C1Nc2ccc(-c3ccc(Cl)cc3)cc2C1=C1Nc2ccccc2C1=O` [Example 1.4], for which the IC50 in the data set on MCF-7 cells was found to be 500 nM; on CDK2/CycE, 30 nM.
